{"source": "paper PMC5944968", "about": "“A multi-chamber microfluidic intestinal barrier model using Caco-2 cells for drug transport studies” (PLoS ONE, 2018)", "key": {"[1]": {"test_system": "Caco-2 monolayers", "test": "TEER of Caco-2 monolayers in microfluidic device after permeation enhancer", "type": "cell-based, Human", "protocol": "TEER measurements (Ω) of the Caco-2 cells cultured in the microfluidic device were obtained by coupling the connecting wires of the electrodes to a multimeter (Keithley, USA) using alligator clips. Each chamber contained two sets of top electrodes and two sets of bottom electrodes. Each time the TEER values were recorded, only one top electrode and one bottom electrode are connected to the multimeter. Four different configurations of TEER values were recorded, averaged to calculate the final TEER values measured across the microchamber.\nThe final TEER values (Ω cm^2) were determined by subtracting the baseline measurement in the absence of cells (Rbaseline) from the read out (R1) and multiplying with the area of cell culture (Ao, 1.12 cm^2 for Transwell and 0.1 cm^2 for the microfluidic device) as shown in Eq 1.\n(§1) Buffer^+ was prepared by mixing Hank’s Buffered Saline solution (HBSS; Gibco, Denmark), 0.1% (wt/vol) OVA (ovalbumin; from chicken egg white, Sigma, Denmark) and 10 mM HEPES (HEPES; Sigma, Denmark) at pH 7.4.\nTo validate the accuracy and dynamic span of TEER values acquired from the electrodes on the microfluidic chip, a permeation enhancer, tetradecyl-β-D-maltoside (TDM), was introduced to the Caco-2 monolayers for two hours. The concentration of TDM used in the earlier reported studies is expected to cause a transient disruption of the Caco-2 monolayer integrity, while causing minimal cell death, which is reversible after 24 hours in fresh cell culture medium."}, "[2]": {"test_system": "Caco-2 monolayers", "test": "TEER of Caco-2 monolayers in Transwell inserts after permeation enhancer", "type": "cell-based, Human", "settings": "recovering to normal levels within 24h in fresh medium", "protocol": "TEER was measured in Transwell inserts with Millicell ERS-2 chopstick Silver/SilverChloride (Ag/AgCl) electrodes (Millipore, USA), and calculated via Eq 1 (see below). […] Sigma, Denmark), insulin (Novo Nordisk, Denmark) and tetradecyl-β-D-Maltoside (TDM; Sigma, Denmark) were all prepared using buffer^+ as the diluent. Buffer^+ was prepared by mixing Hank’s Buffered Saline solution (HBSS; Gibco, Denmark), 0.1% (wt/vol) OVA (ovalbumin; from chicken egg white, Sigma, Denmark) and 10 mM HEPES (HEPES; Sigma, Denmark) at pH 7.4. […] The gentle shaking was to ensure there was little unstirred diffusion layers of fluid in the basolateral region. […] PerkinElmer), after mixing with scintillation fluid (Microscint-40; PerkinElmer), along with a peptide and FD4 content. After the experiments, the cells were washed twice with buffer^+ and replenished with medium for 24 hour recovery. In the microfluidic system, similar to the Transwell studies, before the start of experiment, the DMEM was replaced with buffer^+. Buffer^+ was flowed into the system for 1 hr. Subsequently, the buffer was changed to the test solutions in the top fluidic layer. Flow rate was set at 3 μl/min (in both the upper and lower layers). In the collection reservoirs of the basolateral chambers, 200 μl of buffer was added to each of the collection reservoirs. […]"}, "[3]": {"test_system": "Caco-2 monolayers", "protocol": "as §1\n(§2) The Caco-2 translocation of peptide, [^3H]mannitol or Rh 123 over Caco-2 layers is expressed as the apparent permeability (Papp), given by: Papp=dQ/dt1/AC0 (2) Where dQ/dt is the steady-state flux across the cell layer (pmol/s), A is the surface area (1.12 cm^2 for Transwell, 0.1 cm^2 for microfluidic), and C0 is the initial sample concentration."}, "[4]": {"test_system": "P-gp", "test": "Rh 123 bidirectional permeability / P-gp efflux across Caco-2 monolayers in microfluidic device", "type": "in vitro ADME", "settings": "human, day 10 of cell culture; for Papp at 10 μM: Caco-2, 10 μM Rh 123, microfluidic device, n = 3", "protocol": "Before carrying out the Rh 123 studies, buffer^+ was flowed to both the upper and lower channels for 1 hr. Following that Rh 123 (Sigma-Aldrich, Denmark) prepared in buffer^+ to a concentration of 10 μM was flowed to the basolateral side. 200μl of buffer^+ was added to each waste reservoirs. At each 15min interval, 150 μl was removed from the respective waste reservoirs with replacement of 150μl of buffer^+. Studies were carried out in triplicates.\nas §2\nFor the P-gp studies, the collected samples were analyzed for Rh 123 content using a fluorescence plate reader with excitation/emission of 485/546nm, based on standard curves prepared from test solutions. The efflux ratio of P-gp was determined by: effluxratio=Papp(Basal→Apical)/Papp(Apical→Basal) (4)"}}, "note": "Where two headings read alike, the source gives them in different places."}
{"compound": "CCCCCCCCCCCCCCO[C@@H]1O[C@H](CO)[C@@H](O[C@H]2O[C@H](CO)[C@@H](O)[C@H](O)[C@H]2O)[C@H](O)[C@H]1O", "note": "[TDM, tetradecyl-β-D-maltoside]", "values": [{"measurement": "TEER in the presence of TDM, % of initial values", "setting": "[1]; TDM for two hours", "result": 21, "unit": "%"}, {"measurement": "TEER recovery, % of initial values", "setting": "[1]; after 24 hours of continuous perfusion with cell culture medium", "result": 90, "unit": "%"}, {"measurement": "TEER change following TDM addition", "setting": "[1]; recovering to normal levels within 24h in fresh medium", "result": "reversibly decreased"}, {"measurement": "TEER change following TDM addition", "setting": "[2]", "result": "reversibly decreased"}]}
{"compound": "OC[C@@H](O)[C@@H](O)[C@H](O)[C@H](O)CO", "note": "[mannitol]", "values": [{"measurement": "Papp in microfluidic chip compared to static Transwell cultures", "setting": "[3]", "result": "slightly higher (not significant)"}]}
{"compound": "COC(=O)c1ccccc1-c1c2ccc(=N)cc-2oc2cc(N)ccc12", "note": "[Rh 123, Rhodamine 123]", "values": [{"measurement": "Papp at 10 μM", "setting": "[4]; read-out: Papp(apical → basal)", "result": "~10.3", "unit": "nm/s"}, {"measurement": "Papp at 10 μM", "setting": "[4]; read-out: Papp(basal → apical)", "result": "~112", "unit": "nm/s"}, {"measurement": "efflux ratio at 10 μM", "setting": "[4]; Caco-2, microfluidic device, read-out: efflux ratio Papp(Basal→Apical)/Papp(Apical→Basal)", "result": "~10.8"}]}
